Our source for the GI50 and TGI values is PubChem BioAssay (NCI).

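Grown in 96-well plates, cells were treated for 48 hours with each compound at five concentrations. Insufficient inhibition: endpoint recorded as highest concentration tested. Here, GI50 denotes the concentration required for 50% inhibition of growth. The concentration for full growth arrest is given as TGI.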

Assay in all cases: growth of human tumour cells (NCI), 48 h
Test [1] relates to A498 renal.
Test [2] deals with RPMI-8226 leukemia.
Test [3] relates to UO-31 renal.
Test [4] concerns HCC-2998 colon.
In test [5] the test system is SN12C renal.
The subject of test [6] is SR leukemia.
The subject of test [7] is HCT-116 colon.
Test [8] concerns KM12 colon.
Test [9] relates to OVCAR-3 ovarian.
The test system of test [10] is MALME-3M melanoma.

Turning to `COc1cc(OC)c(C(=O)/C=C/c2cccc(C#N)c2)c(OC)c1`, the GI50 in test [1] is 1.24 µM; in test [2] it was 0.981 µM; in test [3], 1.13 µM; in test [4] it was 2.17 µM; in test [5], 1.5 µM; in [6], 0.241 µM. The GI50 was 0.414 µM in test [7], 1.64 µM in [8], 1.75 µM in [9] and 1.76 µM in test [10]. In addition, the TGI in test [1] is 3.3 µM; in test [2], 4.31 µM; in test [3] it was 4.86 µM; in test [4] it was 7.34 µM; in [5], 7.1 µM; in [6], over 50 µM. Further, the TGI in test [7] is 1.62 µM; in [8], 5.97 µM; in test [9], 6.74 µM; in [10], 8.13 µM.

As to `O=C(O)C(CS)NCc1c2ccccc2nc2ccccc12` (stereo not given), the TGI in [2] was 70.3 µM; in test [3], 64.2 µM; in [4], over 100 µM; in test [5], over 100 µM; in test [6], 97.3 µM; in [7], over 100 µM. Moreover, the TGI in [8], in [9] and in [10] was over 100 µM in each case.

With `Cc1nn(C)c(COc2ccc(N3CCN(S(=O)(=O)N(C)C)CC3)cc2)c1-c1cccc2c(CCCOc3cccc4ccccc34)c(C(=O)O)n(CCN3CCOCC3)c12`, the GI50 is 2.3 µM in test [1]; 6.13 µM in test [3]; 2.81 µM in test [4]; 3.25 µM in [5]; 3.13 µM in test [6]; 3.08 µM in [7]. In addition, the values for the GI50 in [8], in [9] and in test [10] were 3.5 µM, 2.72 µM and 3.15 µM, respectively. Besides, the TGI is 6.59 µM in test [1]; 20.3 µM in test [3]; 9.34 µM in [4]; 12.4 µM in [5]; 11 µM in test [6]; 15 µM in test [7]. The values for the TGI in test [8], in test [9] and in test [10] were 13 µM, 8.57 µM and 15.5 µM, respectively.

In the case of `CC(=O)[O][Sn]([CH2]c1ccccc1)([CH2]c1ccccc1)[CH2]c1ccccc1`, the GI50 in [1] was over 4.95 µM; in [2] it was 3.65 µM; in test [3], over 8.79 µM; in [4], over 6.73 µM; in test [5], over 10 µM; in test [6] it was 3.76 µM. Also, the GI50 in test [7] was over 9.18 µM; in [8], over 10 µM; in test [9], over 6.14 µM; in test [10] it was over 4.38 µM. The TGI in test [1] is 9.94 µM; in [2], over 4.64 µM; in test [3], over 10 µM; in test [4] it was over 10 µM; in test [5], over 10 µM; in test [6], over 4.64 µM. In addition, the TGI is over 10 µM in [7], over 10 µM in [8], over 10 µM in [9] and over 6.05 µM in test [10].

Take `COc1ccc(COC2CC(OC)OC(C)C2OC(=O)c2ccccc2)cc1` (stereo not given): the TGI was over 100 µM in test [1]; 46.7 µM in test [2]; 70.7 µM in [3]; over 100 µM in test [4]; over 100 µM in test [5]; 58.2 µM in test [6]. The TGI in test [7] was over 84 µM; in test [8] it was over 100 µM; in test [9] it was over 95 µM; in test [10], over 71.3 µM.

With `COc1ccc(C2=CC(c3ccc(OC)cc3Br)N3C=CSC3=N2)cc1` (stereo not given), the GI50 in test [1] was 13.3 µM; in [2] it was 1.86 µM; in test [3], 7.31 µM; in test [4], 5.38 µM; in [5], 10 µM; in [6], 1.73 µM. Moreover, the GI50 in test [7] was 1.66 µM; in [8], 2.28 µM; in test [9], 4.11 µM; in test [10], 14 µM. Further, the TGI stood at 32.5 µM in test [1]; 7.29 µM in test [2]; 21.2 µM in test [3]; 17.8 µM in [4]; 25.5 µM in test [5]; 7.1 µM in test [6]. The TGI in [7] is 3.17 µM; in test [8], 5.06 µM; in test [9], 14.8 µM; in [10] it was 32.3 µM.

Turning to `CCOC(=O)c1cc2c(n1Cc1cc(OC)c(OC)c(OC)c1)-c1oncc1CCC2`, the GI50 was 0.0602 µM in test [1]; 0.42 µM in test [2]; 0.303 µM in test [3]; 0.335 µM in test [4]; 0.628 µM in test [5]; 0.0464 µM in test [6]. Also, the GI50 in [7] is 0.235 µM; in test [8], 0.0884 µM; in [9] it was 0.0901 µM; in [10] it was 0.061 µM. In addition, the TGI in [1] is 0.435 µM; in [2], 21.9 µM; in test [3], over 67.4 µM; in [4], 5.17 µM; in test [5], over 40.1 µM; in test [6] it was 5.5 µM. Further, the TGI in [7] was over 100 µM; in test [8], over 55.4 µM; in test [9], 0.399 µM; in test [10], over 52.3 µM.

`O=C1/C(=N\O)S(=O)(=O)c2ccccc21`: the TGI in test [1], in test [2], in test [3], in test [4], in [5] and in [6] was over 100 µM throughout. In addition, the TGI in [7], in test [8] and in test [10] was over 100 µM in each case.

With `Cc1cn2c(/C=C3/C(=O)Nc4ccc(O)cc43)c(C)nc2s1`, the GI50 in [1] was 19.1 µM; in test [2] it was 1.93 µM; in test [3], 26.5 µM; in test [4], 1.76 µM; in test [5] it was 3.79 µM; in test [6], 0.316 µM. The GI50 is 1.22 µM in [7], 1.8 µM in test [8], 0.486 µM in test [9] and 0.946 µM in test [10]. Further, the TGI in [1] was 67.7 µM; in [2], over 20.6 µM; in test [3], over 100 µM; in [4] it was 5.01 µM; in test [5] it was 41.4 µM; in test [6], 13.6 µM. Also, the TGI was over 45.5 µM in [7], 24.3 µM in test [8], over 22.6 µM in test [9] and 19.5 µM in test [10].

With `CC(C)(C)c1[nH]nc2c1C(c1cc3ccccc3[nH]c1=O)Nc1cc(C(=O)OCc3ccccc3)ccc1N2` (stereo not given), the GI50 in test [1] is 3.73 µM; in test [2], 2.71 µM; in [3], 3.42 µM; in [4], 4.08 µM; in test [5], 3.77 µM; in test [6], 3.52 µM. Further, the figures for the GI50 in test [7], in [8] and in test [10] were 3.2 µM, 2.83 µM and 2.49 µM, respectively. Moreover, the TGI in [1] was 81.9 µM; in test [2] it was over 100 µM; in test [3] it was over 100 µM; in test [4], over 100 µM; in test [5], over 100 µM; in [6], over 100 µM. Besides, the TGI in test [7] was over 100 µM; in [8], 7.34 µM; in [10] it was 7.47 µM.

On to `CN(C)C(=O)c1ccc([N+](=O)[O-])cc1`, for which the TGI in test [1], in [3], in [4], in test [5], in [6] and in test [7] was over 100 µM throughout. Moreover, the TGI in test [8], in [9] and in test [10] was over 100 µM in each case.

As to `O=[N+]([O-])c1ccc(N2CCC(CCCC3CCN(c4ccc([N+](=O)[O-])cc4[N+](=O)[O-])CC3)CC2)c([N+](=O)[O-])c1`, the TGI in test [1] was 31.8 µM; in test [2], 43.3 µM; in test [3], 26.9 µM; in [5] it was over 100 µM; in [6], 74.7 µM; in [7], over 100 µM. For the same compound, the TGI in test [8] is 30.7 µM; in [9], 34.5 µM; in [10], 42.4 µM.

Turning to `Cc1[nH]c2ccc(F)cc2c1-c1nc2c3cccnc3c3ncccc3c2[nH]1`, the GI50 in test [1] was 0.944 µM; in test [2] it was 3.43 µM; in test [4] it was 0.321 µM; in test [5], 0.403 µM; in test [6], 0.134 µM; in [7], 0.263 µM. For the same compound, the GI50 in test [8] is 0.391 µM; in test [9], 0.268 µM; in test [10] it was 0.283 µM. Besides, the TGI in test [1], in test [2], in test [4], in test [5], in [6] and in test [7] was over 100 µM each time. The TGI in test [8], in test [9] and in test [10] was over 100 µM throughout.

In the case of `CCOC(=O)C1CCCCN1C(=O)c1ccc(Nc2cnc3cc(C(F)(F)F)ccc3n2)cc1` (stereo not given), the GI50 in [1] is 10.3 µM; in test [2], 2.2 µM; in [3], 14.2 µM; in test [5], 16.2 µM; in [6], 3.8 µM; in [7], 14.9 µM. Moreover, the results for the GI50 in test [8], in test [9] and in test [10] were 13.1 µM, 15.5 µM and 6.89 µM, respectively. For the same compound, the TGI in [1] came out at 22.9 µM; in [2] it was 6.42 µM; in test [3], 33.2 µM; in [5], 31.5 µM; in test [6], 19.1 µM; in [7], 28.1 µM. The TGI came to 27.8 µM in test [8], 31.6 µM in test [9] and 22.1 µM in [10].

For `CCSc1nc(SCC)c2c(-c3ccc(OC)c(OC)c3)c(C#N)c(SCC)nc2n1`, the GI50 is 8.38 µM in [2]; 32.9 µM in [3]; 21 µM in test [4]; 21.7 µM in [5]; 26.5 µM in [6]; 30.3 µM in [7]. Further, the GI50 in test [8] is 43.1 µM; in [9], 10.5 µM. For the same compound, the TGI in test [2] is 94.4 µM; in test [3], over 100 µM; in [4] it was 49.2 µM; in test [5] it was 56.7 µM; in test [6], over 100 µM; in test [7], over 100 µM. Moreover, the TGI in test [8] was over 100 µM; in [9] it was 32.5 µM.

Regarding `C[C@]12CC[C@@H]3c4ccc(O)cc4CC[C@H]3[C@@H]1Cc1cnc(N)nc12`, the GI50 was 12.7 µM in test [2]; 19 µM in test [3]; 9.36 µM in test [4]; 20.6 µM in test [5]; 7.06 µM in [6]; 23.6 µM in test [7]. The GI50 in test [8] was 11.8 µM; in test [9], 23 µM; in test [10], 15.6 µM. Also, the TGI came to 31.4 µM in test [2]; 43.7 µM in test [3]; 26.1 µM in test [4]; 44.2 µM in test [5]; 39.2 µM in test [6]; 69.2 µM in [7]. Further, the TGI in test [8] stood at 26.8 µM; in test [9] it was 58.7 µM; in test [10], 29.8 µM.

On to `O=C1c2ccc3c4c(ccc(c24)C(=O)N1CCCNCc1ccccc1Cl)C(=O)N(CCCNCc1ccccc1Cl)C3=O`, for which the GI50 in test [1] is 0.712 µM; in test [2], 0.39 µM; in test [4] it was 0.191 µM; in [5], 0.0995 µM; in test [6], 0.151 µM; in test [7] it was 0.126 µM. The GI50 in test [8] was 0.17 µM; in [9], 0.132 µM; in test [10] it was 0.315 µM. Moreover, the TGI in test [1] came out at 1.43 µM; in test [2], 1.86 µM; in test [4] it was 0.651 µM; in test [5], 0.206 µM; in test [6], 6.68 µM; in [7] it was 0.344 µM. The TGI in test [8] is 0.637 µM; in [9], 0.345 µM; in [10], 1.05 µM.
